Source: ChEMBL document CHEMBL5608174, “Synthesis and biological evaluation of 4-phenyl-5-quinolinyl substituted isoxazole analogues as potent cytotoxic and tubulin polymerization inhibitors against ESCC” (Eur J Med Chem, 2024)
Calls of active or inactive are those of the source. No cut-off for these calls is given here.

Tests used:
[1] = tested on: KYSE-30; assay: Induction of apoptosis in human KYSE-30 cells assessed as necrotic cells at 10 nmol/L incubated for 48 hrs by Annexin V-FITC/PI staining based flow cytometry analysis (reference value: 1.59 %); format: functional
[2] = tested on: KYSE-30; assay: Induction of apoptosis in human KYSE-30 cells assessed as late apoptotic cells at 5 nmol/L incubated for 48 hrs by Annexin V-FITC/PI staining based flow cytometry analysis (reference value: 5.27 %); format: functional
[3] = tested on: KYSE-30; assay: Inhibition of colony formation in human KYSE-30 cells at 4 nmol/L incubated for 7 days by crystal violet staining based analysis; format: functional, cell-based; settings: time 7.0 day
[4] = target: T1, Tubulin (Homo sapiens) (UniProt P68371+Q9H4B7+P0DPH7+P68366+Q13509+Q71U36+P04350+Q3ZCM7+P07437+P68363+Q9BQE3+Q6PEY2+Q13885+Q9BVA1+Q9BUF5); assay: Inhibition of tubulin polymerization in human KYSE-70 cells assessed as multinucleation of cells at 5 to 20 nmol/L incubated for 24 hrs by DAPI staining based fluorescence microscopic analysis; format: cell-based; settings: dose 5-20 nmol/L
[5] = Toxicity in female BALB/c-nu nude mouse xenografted with human KYSE-30 cells assessed as effect on serum uric acid level at 6 to 12 mg/kg, ip administered for 15 days by biochemical analysis; format: organism-based; settings: in vivo, 360 h, dose 6-12 mg/kg, time 15 day
[6] = Toxicity in female BALB/c-nu nude mouse xenografted with human KYSE-30 cells assessed as change in liver pathology at 6 to 12 mg/kg, ip administered for 15 days by H and E staining based analysis; format: organism-based; settings: in vivo, 360 h, dose 6-12 mg/kg, time 15 day
[7] = tested on: Esophageal squamous cell carcinoma cell; assay: Induction of apoptosis in human Esophageal squamous cell carcinoma cell assessed as increase in cleaved-PARP level at 5 to 20 nmol/L incubated for 48 hrs by Western blot analysis; format: functional, cell-based; settings: dose 5-20 nmol/L
[8] = tested on: KYSE-30; assay: Induction of morphological changes in human KYSE-30 cells assessed as induction of fragmentation in nuclei at 5 to 20 nmol/L incubated for 48 hrs by DAPI staining based fluorescence microscopic analysis; format: functional, cell-based; settings: dose 5-20 nmol/L
[9] = tested on: KYSE-70 cell line; assay: Induction of apoptosis in human KYSE-70 cells assessed as late apoptotic cells at 10 nmol/L incubated for 48 hrs by Annexin V-FITC/PI staining based flow cytometry analysis (reference value: 3.01%); format: functional
[10] = tested on: Esophageal squamous cell carcinoma cell; assay: Induction of apoptosis in human Esophageal squamous cell carcinoma cell assessed as increase in caspase-7 activation at 5 to 20 nmol/L incubated for 48 hrs by Western blot analysis; format: functional, cell-based; settings: dose 5-20 nmol/L
[11] = tested on: Esophageal squamous cell carcinoma cell; assay: Antiproliferative activity against human Esophageal squamous cell carcinoma cells assessed as reduction in EdU-positive cells at 5 to 20 nmol/L incubated for 48 hrs by EdU staining based inverted fluorescence microscopic analysis; format: functional; settings: dose 5-20 nmol/L
[12] = tested on: KYSE-30; assay: Antitumor activity against human KYSE-30 cells xenografted in female BALB/c-nu nude mouse assessed as reduction in tumor weight at 6 to 12 mg/kg, ip administered daily for 15 days; format: functional, organism-based; settings: dose 6-12 mg/kg, time 15.0 day
[13] = target: T1, Tubulin (Homo sapiens); assay: Inhibition of tubulin polymerization in human KYSE-30 cells assessed as reduction in filamentous microtubule structure formation at 5 to 20 nmol/L incubated for 24 hrs by DAPI staining based fluorescence microscopic analysis; format: cell-based; settings: dose 5-20 nmol/L
[14] = tested on: KYSE-270; assay: Antiproliferative activity against human KYSE-270 cells assessed as inhibition of cell growth incubated for 48 hrs by MTT assay; format: functional, cell-based; settings: KYSE-270, 48 h
[15] = target: Tubulin beta (Homo sapiens) (UniProt P68371+Q9H4B7+Q13509+P04350+Q3ZCM7+P07437+Q13885+Q9BVA1+Q9BUF5+A6NNZ2); assay: Binding affinity to beta-tubulin colchicine binding site in human KYSE-70 cells assessed as inhibition of EBI-beta-tubulin adduct band formation at 0 to 10 micromol/L preincubated for 2 hrs followed by EBI addition measured after 2 hrs by EBI competition based Western blotting analysis; format: cell-based; settings: dose 0-10 µmol/L, time 4.0 hrs
[16] = tested on: KYSE-30; assay: Induction of apoptosis in human KYSE-30 cells assessed as late apoptotic cells at 10 nmol/L incubated for 48 hrs by Annexin V-FITC/PI staining based flow cytometry analysis (reference value: 5.27 %); format: functional
[17] = target: T1, Tubulin (Homo sapiens); assay: Inhibition of tubulin polymerization in human KYSE-70 cells assessed as reduction in filamentous microtubule structure formation at 5 to 20 nmol/L incubated for 24 hrs by DAPI staining based fluorescence microscopic analysis; format: cell-based; settings: dose 5-20 nmol/L
[18] = tested on: KYSE-70 cell line; assay: Induction of cell cycle arrest in human KYSE-70 cells assessed as accumulation of cells at G2/M phase at 10 nmol/L by PI staining based flow cytometric analysis; format: functional
[19] = target: T1, Tubulin (Homo sapiens); assay: Inhibition of tubulin polymerization in human KYSE-70 cells assessed as effect on mitotic phase at 5 to 20 nmol/L incubated for 24 hrs by DAPI staining based fluorescence microscopic analysis; format: cell-based; settings: dose 5-20 nmol/L
[20] = tested on: KYSE-30; assay: Induction of apoptosis in human KYSE-30 cells assessed as early apoptotic cells at 20 nmol/L incubated for 48 hrs by Annexin V-FITC/PI staining based flow cytometry analysis (reference value: 4.38 %); format: functional
[21] = tested on: KYSE-70 cell line; assay: Effect on nuclear replication in human KYSE-70 cells at 5 to 20 nmol/L incubated for 24 hrs by DAPI staining based fluorescence microscopic analysis; format: functional, cell-based; settings: dose 5-20 nmol/L
[22] = tested on: Esophageal squamous cell carcinoma cell; assay: Induction of apoptosis in human Esophageal squamous cell carcinoma cell assessed as […] of Bax level at 5 to 20 nmol/L incubated for 48 hrs by Western blot analysis; format: functional, cell-based; settings: dose 5-20 nmol/L
[23] = target: T1, Tubulin (Homo sapiens); assay: Inhibition of tubulin polymerization in human KYSE-30 cells assessed as multinucleation of cells at 5 to 20 nmol/L incubated for 24 hrs by DAPI staining based fluorescence microscopic analysis; format: cell-based; settings: dose 5-20 nmol/L
[24] = tested on: KYSE-30; assay: Induction of morphological changes in human KYSE-30 cells assessed as decrease in cell density at 5 to 20 nmol/L incubated for 48 hrs by Calcein AM/PI staining based inverted fluorescence microscopic analysis; format: functional; settings: dose 5-20 nmol/L
[25] = Toxicity in female BALB/c-nu nude mouse xenografted with human KYSE-30 cells assessed as effect on serum AST level at 6 to 12 mg/kg, ip administered for 15 days by biochemical analysis; format: organism-based; settings: in vivo, 360 h, dose 6-12 mg/kg, time 15 day
[26] = tested on: KYSE-30; assay: Induction of apoptosis in human KYSE-30 cells assessed as viable cells at 5 nmol/L incubated for 48 hrs by Annexin V-FITC/PI staining based flow cytometry analysis (reference value: 88.76 %); format: functional; settings: read-out: Activity
[27] = tested on: KYSE-30; assay: Effect on nuclear replication in human KYSE-30 cells at 5 to 20 nmol/L incubated for 24 hrs by DAPI staining based fluorescence microscopic analysis; format: functional, cell-based; settings: dose 5-20 nmol/L
[28] = tested on: KYSE-30; assay: Induction of morphological changes in human KYSE-30 cells assessed as increase in proportion of dead cells at 5 to 20 nmol/L incubated for 48 hrs by Calcein AM/PI staining based inverted fluorescence microscopic analysis; format: functional, cell-based; settings: dose 5-20 nmol/L
[29] = tested on: KYSE-70 cell line; assay: Antiproliferative activity against human KYSE-70 cells assessed as inhibition of cell growth incubated for 48 hrs by MTT assay; format: functional, cell-based; settings: KYSE-70, 48 h
[30] = target: T1, Tubulin (Homo sapiens); assay: Inhibition of tubulin polymerization in human KYSE-30 cells assessed as effect on mitotic phase at 5 to 20 nmol/L incubated for 24 hrs by DAPI staining based fluorescence microscopic analysis; format: cell-based; settings: dose 5-20 nmol/L

inhibition [4]: Active
inhibition [13]: Active
Activity [15]: Active
inhibition [17]: Active
inhibition [19]: Active
inhibition [23]: Active
inhibition [30]: Active
SMILES: COc1ccc(-c2cnoc2-c2cc(C)nc3ccccc23)cc1
Activity [1]: 2.86%
Activity [2]: 11.99%
inhibition [3]: Active
Activity [5]: Non-Toxic
Activity [6]: Non-Toxic
Activity [7]: Active
Activity [8]: Active
Activity [9]: 14.3%
Activity [10]: Active
Activity [11]: Active
Activity [12]: Active
IC50 [14]: 41.8 nM
Activity [16]: 11.91%
Activity [18]: Active
Activity [20]: 47.76%
Activity [21]: inactive
Activity [22]: Active
Activity [24]: Active
Activity [25]: Non-Toxic
viability at 0.005 µM [26]: 38.8%
Activity [27]: inactive
Activity [28]: Active
IC50 [29]: 7.79 nM
